Laboratory results from publication PMC7300217, “Surfactin Like Broad Spectrum Antimicrobial Lipopeptide Co-produced With Sublancin From Bacillus subtilis Strain A52: Dual Reservoir of Bioactives” (Frontiers in Microbiology, 2020).
Values after ≈ are worked out from the molar mass of the structure shown. Each block holds one molecule with its values, some of them ahead of it.

Legend:
[1] = tested on: C. albicans 400054 (clinical isolate); assay: MIC, microtiter plate dilution assay; type: cell-based, Candida albicans; conditions: Candida albicans, 5 × 10^5 CFU/ml, 37°C, OD600 after 48 h, triplicate
Protocol: (§1) The antimicrobial activity was tested by well diffusion assay as mentioned earlier ([Singh et al., 2014]). Strain A52 was grown for 24 h in 500 ml of nutrient broth (NB, Hi-media, India) using 1000 ml flask and subsequently cells were removed by centrifugation (10,000 rpm for 15 min at 4°C). Supernatant was filtered through 0.22 μm filter (Millipore, United States) to obtain cell-free fermented broth (CFB) that was used for antimicrobial assay (50 μl) against various indicator strains and the activity was measured as diameter of inhibition zone. Test strains used were Staphylococcus aureus (MTCC 1430), Bacillus subtilis (MTCC 121), B. firmus (MTCC 488), B. licheniformis (MTCC 429), B. thuringiensis (MTCC 1953), Escherichia coli (MTCC 1610), Micrococcus luteus (MTCC 106), Steptococcus pyrogens (MTCC 1928), S. anginosus (MTCC 1929), S. oralis (MTCC 2696), S. mutans (MTCC 497), Candida albicans (MTCC 1637), C. albicans (MTCC 183), C. albicans (MTCC 227), C. tropicalis (MTCC 184), C. glabrata (MTCC 3019), C. haemulonii (MTCC 2766), and C. inconsplicue (MTCC 1074). The phytopathogenic fungi employed in this study were Alternaria brassicicola (MTCC 2102), Colletotrichum acutatum (MTCC 1037), and Fusarium moniliforme (MTCC 158). Clinical isolates of Candida were provided by National Culture Collection of Pathogenic Fungi (NCCPF), PGIMER, Chandigarh, India.
(§2) The minimum inhibitory concentration (MIC) of HPLC purified peptides was evaluated by using microtiter plate dilution assay. The peptide concentration was estimated using BCA protein assay (Thermo Fisher Scientific, United States) method as described by manufacturer. Actively growing test strains (5 × 10^5 CFU/ml) were inoculated in a 96-well plate with different concentrations of the peptides and plates were incubated for 24–48 h at 37°C (final volume in each well is 200 μl). OD was measured at 600 nm after 24 and 48 h for bacteria and yeast, respectively, using ELISA microplate reader (Thermo, United States). MIC against phytopathogenic fungi was determined using 96-well microtiter plate assay ([Kaur et al., 2016]). In 96-well microplates, 100 μl of fungal spore suspension (1 × 10^5 spores/ml) prepared in potato dextrose broth (PDB, Hi-media, India) was mixed with100 μl of fresh PDB containing different concentrations of lipopeptide. Control well contained 100 μl of fungal spore suspension and 100 μl of only medium. The microplates were incubated at 25°C and readings were recorded at 600 nm after 48 h. The lowest concentration showing no growth was considered as MIC. Each test was done in triplicate and optical density (OD600) of peptide treated wells were compared with uninoculated wells (blank medium control).

C. albicans MTCC 183 = assay: MIC, microtiter plate dilution assay; type: cell-based, Candida albicans; conditions: Candida albicans, MTCC183; 5 × 10^5 CFU/ml, 37°C, OD600 after 48 h, triplicate
Protocol: as §1, §2

C. albicans MTCC 1637 = assay: MIC, microtiter plate dilution assay; type: cell-based, Candida albicans; conditions: Candida albicans, MTCC1637; 5 × 10^5 CFU/ml, 37°C, OD600 after 48 h, triplicate
Protocol: as §1, §2

C. albicans MTCC 227 = assay: MIC, microtiter plate dilution assay; type: cell-based, Candida albicans; conditions: Candida albicans, MTCC227; 5 × 10^5 CFU/ml, 37°C, OD600 after 48 h, triplicate
Protocol: as §1, §2

F. moniliforme MTCC 158 = assay: MIC against phytopathogenic fungi, 96-well microtiter plate assay; type: cell-based, Fusarium moniliforme; conditions: Fusarium verticillioides, MTCC158; 1 × 10^5 spores/ml in PDB, 25°C, OD600 after 48 h, triplicate
Protocol: as §1
(§3) The minimum inhibitory concentration (MIC) of HPLC purified peptides was evaluated by using microtiter plate dilution assay. The peptide concentration was estimated using BCA protein assay (Thermo Fisher Scientific, United States) method as described by manufacturer. […] OD was measured at 600 nm after 24 and 48 h for bacteria and yeast, respectively, using ELISA microplate reader (Thermo, United States). MIC against phytopathogenic fungi was determined using 96-well microtiter plate assay ([Kaur et al., 2016]). […] The microplates were incubated at 25°C and readings were recorded at 600 nm after 48 h. […]

C. glabrata MTCC 3019 = assay: MIC, microtiter plate dilution assay; type: cell-based; conditions: Nakaseomyces glabratus, MTCC3019; 5 × 10^5 CFU/ml, 37°C, OD600 after 48 h, triplicate
Protocol: as §1, §2

[2] = tested on: C. parasilosis 450030 (clinical isolate); assay: MIC, microtiter plate dilution assay; type: cell-based; conditions: 5 × 10^5 CFU/ml, 37°C, OD600 after 48 h, triplicate
Protocol: as §1, §2

[3] = tested on: C. aurius 470126 (clinical isolate); assay: MIC, microtiter plate dilution assay; type: cell-based; conditions: 5 × 10^5 CFU/ml, 37°C, OD600 after 48 h, triplicate
Protocol: as §1, §2

[4] = tested on: C. inconsplicue MTCC 1074; assay: MIC, microtiter plate dilution assay; type: cell-based; conditions: 5 × 10^5 CFU/ml, 37°C, OD600 after 48 h, triplicate
Protocol: as §1, §2

[5] = tested on: C. tropicalis 420024 (clinical isolate); assay: MIC, microtiter plate dilution assay; type: cell-based; conditions: Candida tropicalis, 5 × 10^5 CFU/ml, 37°C, OD600 after 48 h, triplicate
Protocol: as §1, §2

[6] = tested on: C. haemulonii 470125 (clinical isolate); assay: MIC, microtiter plate dilution assay; type: cell-based; conditions: Candidozyma haemuli, 5 × 10^5 CFU/ml, 37°C, OD600 after 48 h, triplicate
Protocol: as §1, §2

[7] = tested on: C. krusei 440009 (clinical isolate); assay: MIC, microtiter plate dilution assay; type: cell-based; conditions: Pichia kudriavzevii, 5 × 10^5 CFU/ml, 37°C, OD600 after 48 h, triplicate
Protocol: as §1, §2

[8] = tested on: C. glabrata SKSS ID (clinical isolate); assay: MIC, microtiter plate dilution assay; type: cell-based; conditions: Nakaseomyces glabratus, 5 × 10^5 CFU/ml, 37°C, OD600 after 48 h, triplicate
Protocol: as §1, §2

[9] = tested on: C. rugos 470141 (clinical isolate); assay: MIC, microtiter plate dilution assay; type: cell-based; conditions: 5 × 10^5 CFU/ml, 37°C, OD600 after 48 h, triplicate
Protocol: as §1, §2

[10] = tested on: C. kefyr 410004 (clinical isolate); assay: MIC, microtiter plate dilution assay; type: cell-based; conditions: Kluyveromyces marxianus, 5 × 10^5 CFU/ml, 37°C, OD600 after 48 h, triplicate
Protocol: as §1, §2

C. haemulonii MTCC 2766 = assay: MIC, microtiter plate dilution assay; type: cell-based; conditions: Candidozyma haemuli, MTCC2766; 5 × 10^5 CFU/ml, 37°C, OD600 after 48 h, triplicate
Protocol: as §1, §2

C. tropicalis MTCC 184 = assay: MIC, microtiter plate dilution assay; type: cell-based; conditions: Candida tropicalis, MTCC184; 5 × 10^5 CFU/ml, 37°C, OD600 after 48 h, triplicate
Protocol: as §1, §2

[11] = tested on: A. brassicicola MTCC 2102; assay: MIC against phytopathogenic fungi, 96-well microtiter plate assay; type: cell-based, Alternaria brassicicola; conditions: Alternaria brassicicola, MTCC2102; 1 × 10^5 spores/ml in PDB, 25°C, OD600 after 48 h, triplicate
Protocol: (§4) The antimicrobial activity was tested by well diffusion assay as mentioned earlier ([Singh et al., 2014]). Strain A52 was grown for 24 h in 500 ml of nutrient broth (NB, Hi-media, India) using 1000 ml flask and subsequently cells were removed by centrifugation (10,000 rpm for 15 min at 4°C). Supernatant was filtered through 0.22 μm filter (Millipore, United States) to obtain cell-free fermented broth (CFB) that was used for antimicrobial assay (50 μl) against various indicator strains and the activity was measured as diameter of inhibition zone. […]
as §3, with “assay.” for “assay. The peptide concentration was estimated using BCA protein assay (Thermo Fisher Scientific, United States) method as described by manufacturer.”

M. luteus MTCC 106 = assay: MIC, microtiter plate dilution assay; type: cell-based, Micrococcus luteus; conditions: Micrococcus luteus, MTCC106; 5 × 10^5 CFU/ml, 37°C, OD600 after 24 h, triplicate
Protocol: as §4
as §3, with “assay.” for “assay. The peptide concentration was estimated using BCA protein assay (Thermo Fisher Scientific, United States) method as described by manufacturer.”

B. subtilis MTCC 121 = assay: MIC, microtiter plate dilution assay; type: cell-based, Bacillus subtilis; conditions: Bacillus subtilis, MTCC121; 5 × 10^5 CFU/ml, 37°C, OD600 after 24 h, triplicate
Protocol: as §4
as §3, with “assay.” for “assay. The peptide concentration was estimated using BCA protein assay (Thermo Fisher Scientific, United States) method as described by manufacturer.”

S. aureus MTCC 1430 = assay: MIC, microtiter plate dilution assay; type: cell-based, Staphylococcus aureus; conditions: Staphylococcus aureus, MTCC1430; 5 × 10^5 CFU/ml, 37°C, OD600 after 24 h, triplicate
Protocol: as §4
as §3, with “assay.” for “assay. The peptide concentration was estimated using BCA protein assay (Thermo Fisher Scientific, United States) method as described by manufacturer.”

B. coagulans MTCC 492 = assay: MIC, microtiter plate dilution assay; type: cell-based; conditions: Heyndrickxia coagulans, MTCC492; 5 × 10^5 CFU/ml, 37°C, OD600 after 24 h, triplicate
Protocol: as §2

B. cereus MTCC 430 = assay: MIC, microtiter plate dilution assay; type: cell-based; conditions: Bacillus cereus, MTCC430; 5 × 10^5 CFU/ml, 37°C, OD600 after 24 h, triplicate
Protocol: as §2

E. coli MTCC 1610 = assay: MIC, microtiter plate dilution assay; type: cell-based, Escherichia coli; conditions: Escherichia coli, MTCC1610; 5 × 10^5 CFU/ml, 37°C, OD600 after 24 h, triplicate
Protocol: as §4
as §3, with “assay.” for “assay. The peptide concentration was estimated using BCA protein assay (Thermo Fisher Scientific, United States) method as described by manufacturer.”

S. oralis MTCC 2696 = assay: MIC, microtiter plate dilution assay; type: cell-based; conditions: Streptococcus oralis, MTCC2696; 5 × 10^5 CFU/ml, 37°C, OD600 after 24 h, triplicate
Protocol: as §1, §2

S. pyogenes MTCC 1928 = assay: MIC, microtiter plate dilution assay; type: cell-based; conditions: Streptococcus pyogenes, MTCC1928; 5 × 10^5 CFU/ml, 37°C, OD600 after 24 h, triplicate
Protocol: as §1, §2

S. mutans MTCC 497 = assay: MIC, microtiter plate dilution assay; type: cell-based; conditions: Streptococcus mutans, MTCC497; 5 × 10^5 CFU/ml, 37°C, OD600 after 24 h, triplicate
Protocol: as §1, §2

S. anginosus MTCC1929 = assay: MIC, microtiter plate dilution assay; type: cell-based; conditions: Streptococcus anginosus, MTCC1929; 5 × 10^5 CFU/ml, 37°C, OD600 after 24 h, triplicate
Protocol: as §1, §2

MIC [1]: 5 µg/mL (≈ 5.41 µM)
MIC (C. albicans MTCC 183): 5 µg/mL (≈ 5.41 µM)
MIC (C. albicans MTCC 1637): 5 µg/mL (≈ 5.41 µM)
MIC (C. albicans MTCC 227): 5 µg/mL (≈ 5.41 µM)
MIC (F. moniliforme MTCC 158): 50 µg/mL (≈ 54.1 µM)
MIC (C. glabrata MTCC 3019): 25 µg/mL (≈ 27.1 µM)
MIC [2]: 50 µg/mL (≈ 54.1 µM)
MIC [3]: 5 µg/mL (≈ 5.41 µM)
MIC [4]: 10 µg/mL (≈ 10.8 µM)
MIC [5]: 50 µg/mL (≈ 54.1 µM)
MIC [6]: 50 µg/mL (≈ 54.1 µM)
MIC [7]: 5 µg/mL (≈ 5.41 µM)
MIC [8]: 100 µg/mL (≈ 108 µM)
MIC [9]: 5 µg/mL (≈ 5.41 µM)
MIC [10]: 50 µg/mL (≈ 54.1 µM)
MIC (C. haemulonii MTCC 2766): 100 µg/mL (≈ 108 µM)
MIC (C. tropicalis MTCC 184): 35 µg/mL (≈ 37.9 µM)
MIC [11]: 50 µg/mL (≈ 54.1 µM)
Structure (SMILES): C[C@@H]1[C@H](O)[C@@H](C)/C=C/C=C/C=C/C=C/C=C/C=C/C=C/[C@H](O[C@@H]2O[C@H](C)[C@@H](O)[C@H](N)[C@@H]2O)C[C@@H]2O[C@](O)(C[C@@H](O)C[C@@H](O)[C@H](O)CC[C@@H](O)C[C@@H](O)CC(=O)O[C@H]1C)C[C@H](O)[C@H]2C(=O)O [Amphotericin B, reference compound]

MIC (M. luteus MTCC 106): 0.2 µg/mL (≈ 0.572 µM)
MIC (B. subtilis MTCC 121): 0.5 µg/mL (≈ 1.43 µM)
MIC (S. aureus MTCC 1430): 0.25 µg/mL (≈ 0.715 µM)
MIC (B. coagulans MTCC 492): 0.5 µg/mL (≈ 1.43 µM)
MIC (B. cereus MTCC 430): 0.5 µg/mL (≈ 1.43 µM)
MIC (E. coli MTCC 1610): 1 µg/mL (≈ 2.86 µM)
MIC (S. oralis MTCC 2696): 0.4 µg/mL (≈ 1.14 µM)
MIC (S. pyogenes MTCC 1928): 0.03 µg/mL (≈ 0.0859 µM)
MIC (S. mutans MTCC 497): 0.4 µg/mL (≈ 1.14 µM)
MIC (S. anginosus MTCC1929): 0.25 µg/mL (≈ 0.715 µM)
Structure (SMILES): CC1(C)S[C@@H]2[C@H](NC(=O)[C@H](N)c3ccccc3)C(=O)N2[C@H]1C(=O)O [Ampicillin, reference compound]
